Experiment: Accumulation of metals in liver and kidney tissues, intraperitoneal administration to intact rats
Format: in vivo, rat
Description: Animals are placed in cages, 4 per cage, with free access to food/water. […] After the last injection, a half of the animals are maintained on hunger (for 12 hours) with free access to water. Upon expiration of this time period, the animals are taken out of the experiment. The second half of the animals continues to have free access to food/water for a further 7 days. On day 6 after the last injection, the animals are maintained on hunger (for 12 hours) with free access to water. Upon expiration of this time period, the animals are taken out of the experiment.
The total kidney, liver and muscle homogenates were prepared as follows. Organ excision and homogenization were carried out at a temperature of 1-4° C. […] The volume of the used buffer in ml was 5 times larger than the mass of isolated organs in grams. The isolated liver was perfused with chilled saline (0.9% NaCl) via the portal vein using a syringe. The minced liver was transferred to a homogenizer with a finely ground Teflon pestle and homogenized in chilled buffer. An isolated pair of kidneys was perfused with chilled saline, released from adipose tissue and minced with scissors. The minced tissue was transferred to a homogenizer with a finely ground Teflon pestle and homogenized in chilled buffer. The total kidney and liver homogenates were centrifuged at 600 g for 15 minutes. […]

**Q.** For `CC(=O)[O-].CC(=O)[O-].[Zn+2]` [Zn acetate, Zinc acetate], which “Zinc in the kidney and liver tissues” value (day 1 and day 7 after discontinuation of the substances) is on record?
**A.** significantly increased

**Q.** What about the “All other analyzed metals (manganese and copper) in kidney and liver tissues” value (intact rats, intraperitoneal) of the same molecule?
**A.** within the same concentrations as in the control group

Source: patent publication US11596650B2, “Composition and method for the treatment of type 2 diabetes” (Vector Vitale IP LLC, priority 2019, dated 2023)
